From PubChem BioAssay (NCI)
Several values for one entry are separate records, joined by “and”; a condition that tells them apart may be missing. Equal entries are not always repeated.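 Step 1: Grow cells in 96-well plates. Step 2: Expose to compound for 48 hours at 5 concentrations. Step 3: Interpolate endpoints linearly; if unreached, use highest concentration. Abbreviation: GI50, concentration required for 50% inhibition of growth. TGI is the concentration that stops growth completely.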

Key:
Test in all cases: NCI tumour cell line growth inhibition, 48 h
[1] = test system: HOP-92 NSCLC
[2] = test system: SF-539 CNS
[3] = test system: U251 CNS
[4] = test system: SK-MEL-28 melanoma
[5] = test system: HT29 colon
[6] = test system: ACHN renal
[7] = test system: K-562 leukemia
[8] = test system: KM20L2 colon
[9] = test system: OVCAR-3 ovarian
[10] = test system: SNB-19 CNS
[11] = test system: OVCAR-5 ovarian
[12] = test system: LOX IMVI melanoma
[13] = test system: TK-10 renal
[14] = test system: SK-MEL-5 melanoma
[15] = test system: A498 renal
[16] = test system: XF 498 CNS
[17] = test system: M19-MEL melanoma
[18] = test system: SNB-78 CNS
[19] = test system: HOP-62 NSCLC
[20] = test system: MOLT-4 leukemia
[21] = test system: M14 melanoma
[22] = test system: NCI-H226 lung
[23] = test system: SR leukemia
[24] = test system: SN12C renal
[25] = test system: NCI-H522 lung
[26] = test system: 786-0 renal
[27] = test system: CCRF-CEM leukemia
[28] = test system: DLD-1 colon
[29] = test system: NCI-H23 lung
[30] = test system: HCT-116 colon
[31] = test system: SF-268 CNS
[32] = test system: SF-295 CNS
[33] = test system: UACC-257 melanoma
[34] = test system: MALME-3M melanoma
[35] = test system: UO-31 renal
[36] = test system: DMS 273 small cell lung
[37] = test system: IGROV1 ovarian
[38] = test system: OVCAR-8 ovarian
[39] = test system: HL-60(TB) leukemia
[40] = test system: RXF 393 renal
[41] = test system: KM12 colon
[42] = test system: HCT-15 colon
[43] = test system: SNB-75 CNS
[44] = test system: LXFL 529 NSCLC
[45] = test system: UACC-62 melanoma
[46] = test system: HCC-2998 colon
[47] = test system: CAKI-1 renal
[48] = test system: A549 NSCLC
[49] = test system: EKVX NSCLC
[50] = test system: SW-620 colon
[51] = test system: SK-MEL-2 melanoma
[52] = test system: NCI-H460 lung
[53] = test system: RPMI-8226 leukemia
[54] = test system: DU-145 prostate
[55] = test system: MDA-N
[56] = test system: OVCAR-4 ovarian
[57] = test system: HS 578T breast
[58] = test system: PC-3 prostate
[59] = test system: NCI/ADR-RES ovarian
[60] = test system: COLO 205 colon
[61] = test system: MDA-MB-435
[62] = test system: HOP-18 NSCLC
[63] = test system: DMS 114 small cell lung
[64] = test system: MCF7 breast
[65] = test system: MDA-MB-231 breast

COc1cc2c3cc1Oc1c(OC)c(OC)cc4c1[C@@H](Cc1ccc(O)c(c1)Oc1ccc(cc1)C[C@@H]3N(C)CC2)N(C)CC4
TGI [1]: 24.7 µM | TGI [2]: 13.1 µM | TGI [3]: 21.7 µM | TGI [4]: 29.5 µM | TGI [5]: 24.1 µM | TGI [6]: 38.1 µM | TGI [7]: 33.5 µM | TGI [8]: 21.1 µM | TGI [9]: 29.5 µM | TGI [10]: 45.3 µM | TGI [11]: > 100 µM | TGI [12]: 34.6 µM | TGI [13]: 35.4 µM | TGI [14]: 11.8 µM | TGI [15]: 38.5 µM | TGI [16]: 23.8 µM | TGI [17]: 26.2 µM | TGI [18]: > 100 µM | TGI [19]: 36 µM | TGI [20]: 34.2 µM | TGI [21]: 16.7 µM | TGI [22]: 44.8 µM | TGI [23]: 4.95 µM | TGI [24]: 46.5 µM | TGI [25]: 20.3 µM | TGI [26]: 25.6 µM | TGI [27]: 45.2 µM | TGI [28]: 56.3 µM | TGI [29]: 61.3 µM | TGI [30]: 21.1 µM | TGI [31]: 45.6 µM | TGI [32]: 30.9 µM | TGI [33]: 10.9 µM | TGI [34]: 31.7 µM | TGI [35]: 30.1 µM | TGI [36]: 34 µM | TGI [37]: 36.9 µM | TGI [38]: 31.7 µM | TGI [39]: 26.4 µM | TGI [40]: 25.9 µM | TGI [41]: 27.7 µM | TGI [42]: 27.2 µM | TGI [43]: 23.2 µM | TGI [44]: 24.8 µM | TGI [45]: 30.5 µM | TGI [46]: 20.4 µM | TGI [47]: 19.7 µM | TGI [48]: 62 µM | TGI [49]: 31.3 µM | TGI [50]: 33.8 µM | TGI [51]: 30.9 µM | TGI [52]: 75.6 µM | TGI [53]: 41.5 µM

COc1ccc(/C=C\c2cc(OC)c(OC)c(OC)c2)cc1OC(=O)CC(N)C(=O)O (configuration not stated)
GI50 [1]: 0.00339 µM | TGI [1]: 77.3 µM | GI50 [2]: 0.000427 µM | TGI [2]: 0.00577 µM and 0.0374 µM | GI50 [3]: 0.000352 µM | TGI [3]: 0.00855 µM and 0.0702 µM | TGI [54]: 0.0187 µM | GI50 [4]: 0.000728 µM | TGI [4]: > 100 µM | TGI [55]: 0.000474 µM | GI50 [5]: 4.65 µM | TGI [5]: 39.6 µM | GI50 [56]: 9.51 µM | TGI [56]: > 100 µM | GI50 [6]: 0.000709 µM | TGI [6]: > 100 µM | GI50 [7]: 0.000493 µM | TGI [7]: > 100 µM | GI50 [57]: 0.00262 µM | TGI [57]: 0.00314 µM | TGI [8]: 21.2 µM | GI50 [9]: 0.000506 µM | TGI [9]: 0.00528 µM and 0.00484 µM and 0.0193 µM | GI50 [10]: 0.000909 µM | GI50 [11]: 55.8 µM | TGI [11]: > 100 µM | GI50 [58]: 0.00227 µM | GI50 [12]: 0.0639 nM | GI50 [13]: 36.9 µM | TGI [13]: > 100 µM | GI50 [14]: 0.000453 µM and 0.00141 µM | TGI [15]: 0.00888 µM | TGI [16]: 0.00792 µM | TGI [17]: > 100 µM | TGI [18]: > 100 µM | TGI [19]: > 100 µM | GI50 [20]: 0.00172 µM | GI50 [21]: 0.00046 µM | TGI [59]: 0.000534 µM | GI50 [60]: 4.11 µM | TGI [60]: 21 µM | TGI [22]: 0.107 µM | TGI [61]: 0.000316 µM | GI50 [62]: > 100 µM | TGI [62]: > 100 µM | TGI [63]: 0.00318 µM | GI50 [24]: 0.00412 µM | TGI [24]: > 100 µM | GI50 [25]: 0.000424 µM | TGI [25]: 0.00157 µM and 0.00192 µM | GI50 [26]: 0.000174 µM | GI50 [27]: 0.000495 µM | TGI [28]: > 100 µM | GI50 [29]: 0.000635 µM | TGI [29]: 0.0465 µM | GI50 [30]: 0.0407 nM | GI50 [31]: 0.000945 µM | TGI [31]: 0.365 µM | GI50 [32]: 0.000726 µM | TGI [32]: 0.00305 µM and 0.00613 µM | GI50 [33]: 11.9 µM | TGI [33]: > 100 µM | GI50 [34]: 0.00102 µM | GI50 [64]: 0.0244 µM | GI50 [35]: 0.0017 µM | TGI [35]: 58.6 µM | TGI [36]: 0.00462 µM | GI50 [37]: 0.00355 µM | TGI [37]: > 100 µM | GI50 [38]: 0.00195 µM | GI50 [39]: 0.000165 µM | GI50 [40]: 0.00122 µM | GI50 [41]: 0.000979 µM | GI50 [42]: 0.000452 µM | GI50 [43]: 0.00286 µM | GI50 [45]: 0.000354 µM | TGI [45]: > 100 µM | GI50 [46]: 0.0951 µM | TGI [46]: > 100 µM | GI50 [48]: 0.00304 µM | TGI [48]: 49.5 µM | TGI [49]: > 100 µM | GI50 [50]: 0.000318 µM | TGI [50]: > 100 µM | GI50 [51]: 0.00151 µM and 0.00249 µM | TGI [51]: 0.00812 µM | GI50 [52]: 0.00048 µM | GI50 [65]: 0.00402 µM | TGI [65]: 0.00404 µM
